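Results reflect a 48-hour exposure of cells in 96-well plates to compound at five concentrations. Here, GI50 denotes the concentration required for 50% inhibition of growth.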 Calls of active or inactive are those of the source. Rule as the data show it: active = GI50 up to about 1.1 µM and inactive = higher.
What was measured:
Assay in all cases: NCI anticancer screen, dose series, 48 h
786-0 = system: 786-0
A549 = system: A549
ACHN = system: ACHN
CAKI-1 = system: CAKI-1
CCRF-CEM = system: CCRF-CEM
COLO 205 = system: COLO 205
DMS-114 = system: DMS-114
DMS-273 = system: DMS-273
EKVX = system: EKVX
HCC 2998 = system: HCC 2998
HCT-116 = system: HCT-116
HCT-15 = system: HCT-15
HL-60 = system: HL-60
HOP-18 = system: HOP-18
HOP-62 = system: HOP-62
HOP-92 = system: HOP-92
HT-29 = system: HT-29
IGROV-1 = system: IGROV-1
K562 = system: K562
KM-20L2 = system: KM-20L2
KM12 = system: KM12
LOX IMVI = system: LOX IMVI
LXFL 529 = system: LXFL 529
M14 = system: M14
M19-MEL = system: M19-MEL
MOLT-4 = system: MOLT-4
Malme-3M = system: Malme-3M
NCI-H226 = system: NCI-H226
NCI-H23 = system: NCI-H23
NCI-H460 = system: NCI-H460
NCI-H522 = system: NCI-H522
OVCAR-3 = system: OVCAR-3
OVCAR-4 = system: OVCAR-4
OVCAR-5 = system: OVCAR-5
OVCAR-8 = system: OVCAR-8
RPMI-8226 = system: RPMI-8226
RXF 393 = system: RXF 393
RXF 631 = system: RXF 631
SF-295 = system: SF-295
SF-539 = system: SF-539
SK-MEL-28 = system: SK-MEL-28
SK-MEL-2 = system: SK-MEL-2
SK-MEL-5 = system: SK-MEL-5
SK-OV-3 = system: SK-OV-3
SN12C = system: SN12C
SNB-19 = system: SNB-19
SNB-75 = system: SNB-75
SNB-78 = system: SNB-78
SR = system: SR
SW-620 = system: SW-620
TK-10 = system: TK-10
U-251 = system: U-251
UACC-257 = system: UACC-257
UACC-62 = system: UACC-62
UO-31 = system: UO-31
XF498 = system: XF498
DLD-1 = system: DLD-1
SF-268 = system: SF-268
A498 = system: A498

## COc1cccc(C(=O)N2CCc3ccccc32)c1OC
786-0
  GI50: > 100 µM (inactive)
A549
  GI50: > 100 µM (inactive)
ACHN
  GI50: 64.9 µM (inactive)
CAKI-1
  GI50: 38.5 µM (inactive)
CCRF-CEM
  GI50: 42.2 µM (inactive)
COLO 205
  GI50: 58.7 µM (inactive)
DMS-114
  GI50: 43.8 µM (inactive)
DMS-273
  GI50: 41 µM (inactive)
EKVX
  GI50: > 100 µM (inactive)
HCC 2998
  GI50: 85.1 µM (inactive)
HCT-116
  GI50: 56.5 µM (inactive)
HCT-15
  GI50: 21 µM
HL-60
  GI50: 27.8 µM (inactive)
HOP-18
  GI50: 34.1 µM (inactive)
HOP-62
  GI50: > 100 µM (inactive)
HOP-92
  GI50: 53.5 µM (inactive)
HT-29
  GI50: 38.9 µM (inactive)
IGROV-1
  GI50: > 100 µM (inactive)
K562
  GI50: 34.7 µM (inactive)
KM-20L2
  GI50: 80.2 µM (inactive)
KM12
  GI50: 34.7 µM (inactive)
LOX IMVI
  GI50: 87.7 µM (inactive)
LXFL 529
  GI50: 74 µM (inactive)
M14
  GI50: 43.6 µM (inactive)
M19-MEL
  GI50: > 100 µM (inactive)
MOLT-4
  GI50: 23 µM (inactive)
Malme-3M
  GI50: 60.4 µM (inactive)
NCI-H226
  GI50: 90.6 µM (inactive)
NCI-H23
  GI50: 34.4 µM (inactive)
NCI-H460
  GI50: 81.8 µM (inactive)
NCI-H522
  GI50: 47.6 µM (inactive)
OVCAR-3
  GI50: 38.5 µM (inactive)
OVCAR-4
  GI50: 48.9 µM (inactive)
OVCAR-5
  GI50: > 100 µM (inactive)
OVCAR-8
  GI50: 78.3 µM (inactive)
RPMI-8226
  GI50: 35.3 µM (inactive)
RXF 393
  GI50: 63.1 µM (inactive)
RXF 631
  GI50: 58.5 µM (inactive)
SF-295
  GI50: 38.5 µM (inactive)
SF-539
  GI50: > 100 µM (inactive)
SK-MEL-28
  GI50: > 100 µM (inactive)
SK-MEL-2
  GI50: > 100 µM (inactive)
SK-MEL-5
  GI50: 69.8 µM (inactive)
SK-OV-3
  GI50: 48.8 µM (inactive)
SN12C
  GI50: > 100 µM (inactive)
SNB-19
  GI50: 74.8 µM (inactive)
SNB-75
  GI50: 68.4 µM (inactive)
SNB-78
  GI50: > 100 µM (inactive)
SR
  GI50: 29.4 µM (inactive)
SW-620
  GI50: 41.9 µM (inactive)
TK-10
  GI50: 57.8 µM (inactive)
U-251
  GI50: 52.7 µM (inactive)
UACC-257
  GI50: 53.1 µM (inactive)
UACC-62
  GI50: 47 µM (inactive)
UO-31
  GI50: > 100 µM (inactive)
XF498
  GI50: 40.3 µM (inactive)

## N#CCCN(CCC#N)c1ccc(/C=C(/NC(=O)Nc2ccccc2Cl)NC(=O)c2cc([N+](=O)[O-])ccc2Cl)cc1
A549
  GI50: > 100 µM (inactive)
ACHN
  GI50: 42.2 µM (inactive)
CAKI-1
  GI50: > 100 µM (inactive)
CCRF-CEM
  GI50: 17.3 µM (inactive)
COLO 205
  GI50: > 100 µM (inactive)
DLD-1
  GI50: 56.1 µM (inactive)
DMS-114
  GI50: > 100 µM (inactive)
DMS-273
  GI50: > 100 µM (inactive)
EKVX
  GI50: > 100 µM (inactive)
HCC 2998
  GI50: > 100 µM (inactive)
HCT-116
  GI50: > 100 µM (inactive)
HCT-15
  GI50: > 100 µM
HOP-18
  GI50: > 100 µM (inactive)
HOP-62
  GI50: > 100 µM (inactive)
HOP-92
  GI50: > 100 µM (inactive)
IGROV-1
  GI50: > 100 µM (inactive)
K562
  GI50: 64.6 µM (inactive)
KM-20L2
  GI50: > 100 µM (inactive)
KM12
  GI50: > 100 µM (inactive)
LOX IMVI
  GI50: > 100 µM (inactive)
LXFL 529
  GI50: > 100 µM (inactive)
M14
  GI50: > 100 µM (inactive)
M19-MEL
  GI50: > 100 µM (inactive)
MOLT-4
  GI50: 42 µM (inactive)
Malme-3M
  GI50: > 100 µM (inactive)
NCI-H226
  GI50: > 100 µM (inactive)
NCI-H522
  GI50: 44.1 µM (inactive)
OVCAR-3
  GI50: > 100 µM (inactive)
OVCAR-4
  GI50: > 100 µM (inactive)
OVCAR-5
  GI50: > 100 µM (inactive)
OVCAR-8
  GI50: 58.5 µM (inactive)
RPMI-8226
  GI50: 52.4 µM (inactive)
RXF 393
  GI50: > 100 µM (inactive)
RXF 631
  GI50: > 100 µM (inactive)
SF-268
  GI50: > 100 µM (inactive)
SF-295
  GI50: > 100 µM (inactive)
SF-539
  GI50: > 100 µM (inactive)
SK-MEL-28
  GI50: > 100 µM (inactive)
SK-MEL-2
  GI50: > 100 µM (inactive)
SK-MEL-5
  GI50: > 100 µM (inactive)
SK-OV-3
  GI50: > 100 µM (inactive)
SN12C
  GI50: > 100 µM (inactive)
SNB-19
  GI50: > 100 µM (inactive)
SNB-78
  GI50: > 100 µM (inactive)
SR
  GI50: 42.4 µM (inactive)
SW-620
  GI50: > 100 µM (inactive)
TK-10
  GI50: > 100 µM (inactive)
U-251
  GI50: > 100 µM (inactive)
UACC-62
  GI50: 57.8 µM (inactive)
UO-31
  GI50: 55.7 µM (inactive)
XF498
  GI50: > 100 µM (inactive)

## COc1ccc2c(c1)C(=O)N1CCOC1C2C(=O)O (stereo unspecified)
786-0
  GI50: > 100 µM (inactive)
A498
  GI50: > 100 µM (inactive)
A549
  GI50: > 100 µM (inactive)
ACHN
  GI50: > 100 µM (inactive)
CAKI-1
  GI50: > 100 µM (inactive)
CCRF-CEM
  GI50: > 100 µM (inactive)
DLD-1
  GI50: > 100 µM (inactive)
DMS-114
  GI50: > 100 µM (inactive)
DMS-273
  GI50: 0.693 µM (active)
EKVX
  GI50: > 100 µM (inactive)
HCC 2998
  GI50: > 100 µM (inactive)
HCT-116
  GI50: > 100 µM (inactive)
HCT-15
  GI50: > 100 µM
HL-60
  GI50: > 100 µM (inactive)
HOP-18
  GI50: > 100 µM (inactive)
HOP-62
  GI50: > 100 µM (inactive)
HOP-92
  GI50: > 100 µM (inactive)
HT-29
  GI50: > 100 µM (inactive)
IGROV-1
  GI50: > 100 µM (inactive)
K562
  GI50: > 100 µM (inactive)
KM-20L2
  GI50: > 100 µM (inactive)
KM12
  GI50: > 100 µM (inactive)
LOX IMVI
  GI50: > 100 µM (inactive)
LXFL 529
  GI50: > 100 µM (inactive)
M14
  GI50: > 100 µM (inactive)
M19-MEL
  GI50: > 100 µM (inactive)
MOLT-4
  GI50: > 100 µM (inactive)
NCI-H23
  GI50: > 100 µM (inactive)
NCI-H460
  GI50: > 100 µM (inactive)
NCI-H522
  GI50: > 100 µM (inactive)
OVCAR-3
  GI50: > 100 µM (inactive)
OVCAR-4
  GI50: > 100 µM (inactive)
OVCAR-5
  GI50: > 100 µM (inactive)
OVCAR-8
  GI50: > 100 µM (inactive)
RPMI-8226
  GI50: > 100 µM (inactive)
RXF 631
  GI50: > 100 µM (inactive)
SF-268
  GI50: > 100 µM (inactive)
SF-295
  GI50: 4.08 µM (inactive)
SF-539
  GI50: > 100 µM (inactive)
SK-MEL-28
  GI50: > 100 µM (inactive)
SK-MEL-5
  GI50: > 100 µM (inactive)
SK-OV-3
  GI50: > 100 µM (inactive)
SN12C
  GI50: > 100 µM (inactive)
SNB-19
  GI50: > 100 µM (inactive)
SNB-75
  GI50: > 100 µM (inactive)
SNB-78
  GI50: > 100 µM (inactive)
SR
  GI50: > 100 µM (inactive)
SW-620
  GI50: > 100 µM (inactive)
TK-10
  GI50: > 100 µM (inactive)
U-251
  GI50: > 100 µM (inactive)
UACC-257
  GI50: > 100 µM (inactive)
UACC-62
  GI50: > 100 µM (inactive)
UO-31
  GI50: > 100 µM (inactive)
XF498
  GI50: > 100 µM (inactive)

From ChEMBL document CHEMBL1201862, “PubChem BioAssay data set” (2004)
